# In PubChem BioAssay AID1996:
# Conditions: buffer; pH 7.4; 200.0 µM
row,SMILES,solubility kinetic
1,COc1ccc(CCN2Cc3c(N)cccc3C2=O)cc1OC,> 0.0469 mg/mL
2,O=C(CC(=O)NCc1ccc(Cl)cc1)NCc1ccccc1,0.0071 mg/mL
3,COc1cccc(OC)c1C(=O)Nc1sc2c(c1C(N)=O)CCCC2,0.025 mg/mL
4,O=C(CSc1ccccc1)NCCc1ccc(F)cc1,0.0349 mg/mL
5,O=C(CSc1ncccn1)NC(=O)c1ccccc1,0.0331 mg/mL
6,CC1(C)OC(C)(C)/C(=C\c2ccc(OCC(N)=O)cc2)C1=O,0.028 mg/mL
7,Cc1ccccc1NC(=O)CCl,0.0262 mg/mL
8,Cc1ccc(C)c(C(=O)CN2C(=O)NC3(CCCCCCC3)C2=O)c1,0.0026 mg/mL
9,O=[N+]([O-])c1ccccc1Nc1nc(-c2cccnc2)cs1,0.0017 mg/mL
10,Cc1c(Cl)cccc1NC(=O)CCN1CCN(C)CC1,> 0.0444 mg/mL
11,O=c1c2ccccc2[nH]c2ccccc12,0.0047 mg/mL
12,Cc1nc(SCC(=O)Nc2ccccc2Cl)oc1C,> 0.0445 mg/mL
13,COC(=O)CSc1nnc(CNC(=O)c2ccc(OC)c(OC)c2)n1C,> 0.0571 mg/mL
14,CCn1c(C(O)c2cc(OC)c(OC)c(OC)c2)nc2ccccc21 (stereo unspecified),0.0477 mg/mL
15,COc1ccccc1NC(=O)Cc1cccc2ccccc12,0.0021 mg/mL
16,N#CC1=C(N)Oc2cc(N)ccc2C1c1ccc(F)cc1F (stereo unspecified),> 0.0449 mg/mL
17,CSCC[C@H](NC(=O)c1cccc(S(=O)(=O)N2CCCCC2)c1)c1nc2ccccc2[nH]1,0.0016 mg/mL
18,Cc1ccc(-c2cc(C(=O)N3CCC(C)CC3)c3ccccc3n2)cc1,0.0066 mg/mL
19,CSc1ccc(/C=N/S(=O)(=O)c2ccccc2)cc1,> 0.0437 mg/mL
20,Cc1cc(SCC(=O)NC2CC2)nc2ccccc12,> 0.0409 mg/mL
21,COc1ccc(CNC(=O)COC(=O)c2ccc(C)c(S(=O)(=O)N3CCOCC3)c2)cc1,0.0078 mg/mL

row,SMILES,solubility kinetic
1,COC(=O)C1SCCN1S(=O)(=O)c1ccc(Cl)cc1 (stereo unspecified),> 0.0483 mg/mL
2,C=C(C)CN1C(=O)C(=O)N(CC(=C)C)C1=O,> 0.0333 mg/mL
3,Cc1ccc(NC(=O)c2ccc(S(=O)(=O)N3CCOCC3)cc2)cc1,0.0036 mg/mL
4,CC(C)CC(=O)N1CCN(Cc2ccccc2Br)CC1,0.042 mg/mL
5,CC(=O)Nc1ccc2c3c(cccc13)C(=O)N(c1ccccc1)C2=O,0.0023 mg/mL
6,O=C(CSCCOc1ccccc1)NCc1ccncc1,> 0.0454 mg/mL
7,O=C(COC(=O)c1cnccn1)Nc1cccc(F)c1,> 0.0413 mg/mL
8,Cc1csc(SC(C)C(=O)NCC2CCCO2)n1 (stereo unspecified),> 0.043 mg/mL
9,CCc1nc2oc3ccccc3c(=O)c2cc1C(=O)OC,0.0042 mg/mL
10,CCCC(NC(=O)c1ccc(Br)o1)c1nc2ccccc2[nH]1 (stereo unspecified),0.0062 mg/mL
11,Cc1cc2ccccn2c1C(=O)c1ccccc1F,0.0125 mg/mL
12,c1ccc(OCc2nc(-c3ccncc3)no2)cc1,0.0365 mg/mL
13,COc1ccc(NC(=O)CN(C)CC(=O)NCC2CCCCC2)cc1,> 0.0521 mg/mL
14,COc1ccc(N/C=C/C(=O)c2ccc(OC)c(OC)c2)cc1,< 0.0007 mg/mL
15,Cc1ccccc1C(=O)NC(=S)NC1CC1,0.0163 mg/mL
16,CCC1(C)Cc2ccccc2C(=O)N1 (stereo unspecified),0.0252 mg/mL
17,O=C(NC1CCCC1)c1cc(=O)[nH]c2ccccc12,0.0336 mg/mL
18,O=C(CCCOC(=O)c1cccnc1Cl)c1ccc(Br)cc1,0.0066 mg/mL
19,O=C(NCc1ccccc1)C1CC(=O)N(C2CCCCC2)C1 (stereo unspecified),> 0.0451 mg/mL
20,O=S(=O)(c1ccccc1)N1CCNCC1,0.0266 mg/mL
21,COc1ccc(C(C)=O)cc1CC(=O)NC1CCCCCC1,0.0392 mg/mL

row,SMILES,solubility kinetic
1,COCCNc1nc2nonc2nc1N1C[C@H]2CC[C@H]1C2,> 0.0435 mg/mL
2,O=C(O)C1CCCN1S(=O)(=O)c1ccc(F)cc1 (stereo unspecified),> 0.041 mg/mL
3,O=C(CN1CCN(Cc2ccccc2)CC1)NCc1ccc(Cl)cc1,> 0.0537 mg/mL
4,O=C(NCc1ccc(F)cc1)c1cnccn1,> 0.0347 mg/mL
5,COc1ccccc1C(=O)COC(=O)C(NC(=O)Cc1ccccc1)C(C)C (stereo unspecified),0.0565 mg/mL
6,c1ccc(-c2cc(NCCN3CCCCC3)c3ccccc3n2)cc1,> 0.0497 mg/mL
7,O=C(NC1CC1)C1CCN(C(=O)c2ccccc2Cl)CC1,> 0.046 mg/mL
8,Cc1ccc(C)c(C(=O)COC(=O)c2c(-c3ccccc3)noc2C)c1,0.0044 mg/mL
9,CC(=O)Nc1nc2c(C)cc(NC(=O)C3CCCCC3)cc2s1,0.0007 mg/mL
10,O=S(=O)(c1cccc2nonc12)N1CCCCCC1,0.0157 mg/mL
11,CCN(CC)CCCNc1nc(N)c([N+](=O)[O-])c(NCCO)n1,> 0.0491 mg/mL
12,COc1ccccc1NS(=O)(=O)c1cccc(NC(=O)c2cncc(Br)c2)c1,0.0064 mg/mL
13,O=C(c1cccc(Cl)c1)N1CCC(c2nc3ccccc3[nH]2)CC1,0.0426 mg/mL
14,Cc1cccc(N2C(=O)C3C4C=CC(C5CC45)C3C2=O)n1 (stereo unspecified),0.0365 mg/mL
15,CC(C)C1C(=O)CC(c2ccccc2)NC1c1ccccc1 (stereo unspecified),0.0016 mg/mL
16,Cc1cc(N2C(=O)Cc3ccccc3C2=O)ccc1C(C)C,0.035 mg/mL
17,Cc1ccc(OCCOC(=O)c2c(-c3ccccc3)noc2C)cc1,< 0.0007 mg/mL
18,CC(=O)c1cccc(OCC(O)CNCC2CCCCC2)c1 (stereo unspecified),> 0.0458 mg/mL
19,COc1ccccc1NC(=O)c1cccc2c(Br)cccc12,< 0.0008 mg/mL
